# From patent US20240415855A1, “COMPOSITIONS AND METHODS RELATING TO USE OF PHOSPHATIDIC ACID TO RESCUE FETAL ALCOHOL SPECTRUM DISORDER (FASD) GROWTH RESTRICTION AND BLOOD VESSEL CONSTRICTION” (Wayne State University, priority 2023, published 2024)
# Like-named read-outs stand apart in the source and are kept apart here.
# Columns and labels:
# uterine artery = experiment: Pressure arteriography of uterine artery (ACh-induced vasodilation) after in vivo treatment; set-up: species or system rat; conditions: ethanol/alcohol group vs control, p<0.05
# Procedure: (§1) The dams were then assigned into experimental groups. […] Rats were euthanized by decapitation while under isoflurane anesthesia.
# Following euthanasia, the entirety of the uterus was excised and immediately placed in ice-cold HBS for pressure arteriography experiments. Uterine artery functional assessments were performed following uterine artery isolation using established procedures. Briefly, the uterine horn was transferred to a 200 mm petri dish with solidified Sylgard to facilitate tissue isolation and cleaning in ice-cold HBS. A 3-5 mm segment of the primary uterine artery was dissected between arterial bifurcations from the approximate center of the uterine horn. Surrounding adipose and connective tissues were carefully removed from the uterine artery segment. […] Intramural pressure was then increased to mimic in vivo pressures at 90 mm Hg, at which pressure the ACh concentration responses were measured. Vessels were pre-constricted with 10^−6 M Tbx as determined previously. […] The above treatment was followed by the administration of three-fold increasing concentrations of ACh from 10^−10 M up to 10^−5 M. Vascular response was recorded by established methods using Ionwizard software version 6.6 (Ionoptix LLC, Westwood, MA, USA) for at least 5 min, or until arterial diameter stabilized.
# [1] = system: endothelial nitric oxide synthase (eNOS); experiment: Uterine artery eNOS immunoblotting / immunofluorescence after in vivo treatment; set-up: species or system rat; conditions: for Total eNOS levels in uterine artery: ethanol and/or PA treatment; for P-Ser1177 eNOS level in uterine artery: ethanol/alcohol-exposed vs control, P<0.05
# Procedure: as §1
# Immunoblotting was performed using standard laboratory procedures. Following euthanasia, the uterine arteries were isolated by separating the vein, and cleaning the adipose tissues in HBS, before flash freezing for immunoblot analysis. Tissues were first homogenized using a 4° C. cooled bead homogenizer (Benchmark Scientific, Sayreville, NJ, USA) and then quantified using BCA protein quantification assay. Next, 20 μg of the uterine artery sample protein was then loaded on to 4-20% mini-protean TGX gels (Bio-rad, Hercules, CA, USA). Following transfer to a PVDF membrane, P-Ser1177 eNOS (Novus Biologicals, Centennial, CO, USA), total eNOS (BD Biosciences, Franklin Lakes, NJ, USA), and β-Actin (Sigma Aldrich, St. Louis, MI, USA) were probed. Densitometry analysis was performed using AzureSpot (Azure Biosystems, Dublin, CA, USA).
# Immunofluorescence assessments were performed using previously published protocols. In brief, maternal uterine arteries were sectioned at 8 μm with a Leica cryostat (CM1860, Leica Biosystems, Buffalo Grove, IL, USA). Sections were subsequently fixed with ice-cold methanol (30 min, −20° C.), and then rinsed in PBS, and incubated in 10% normal serum (60 min). This was followed by incubation with (1:100; p1177-eNOS; Cell Signaling and 1:250; total eNOS, BD Biosciences) primary antibody overnight at 4° C. in a humidified chamber. The sections were then incubated with goat anti-rabbit IgG secondary antibody (Alexa Fluor 488, Invitrogen, Carlsbad, CA, USA), for 1 h at room temperature. Digital images were captured with an Olympus BX63 […] that was equipped with U-HGLGPS fluorescent light source, ORCA-Flash 4.0 LT camera, Hamamatsu Photonics (Hamamatsu, Japan), and Olympus cellSens Dimension software Version 3.2 (Olympus, Tokyo, Japan).
# [2] = system: pregnant Sprague-Dawley rats; experiment: Maternal and fetal growth assessment in FASD rat model (binge alcohol with or without in vivo PA)
# Procedure: (§2) Molecule administered: PA (#840857C, Avanti Polar Lipids) was air-dried under a gentle stream of nitrogen gas and resuspended in 1% BSA to make a 10^−2 M stock solution. PA was administered to pregnant rats in vivo at a dose of 4.5 mg/kg/day for alcohol dose of 4.5 g/kg body weight from gestation day 4 through 10 and 6 mg/kg/day for alcohol dose of 6 g/kg body weight from gestation day 11 through 19 or 20.
# (§3) Timed pregnant Sprague-Dawley rats (8-12 weeks old), were purchased from Charles River (Wilmington, MA, USA) and arrived on GD 4, where they were housed in a temperature-controlled room (23° C.) with a 12:12 h light-dark cycle. The dams were acclimatized for a day before weighing and handling. The dams were then assigned into experimental groups. Four in vivo treatment groups were utilized: (1) a nutritional pair-fed control group (control), that served as a control for nutrition and for the gavage procedure. To control for the calories derived from alcohol, these pair-fed control rats were administered isocaloric maltose-dextrin (once-daily) via orogastric gavage. […] (3) An in vivo phosphatidic acid (PA) control group (control PA), to control for the in vivo PA supplement. […] (4) A binge alcohol in vivo PA group (alcohol PA), that received alcohol via intragastric gavage similar to those in the binge alcohol group along with the PA supplement. Daily PA doses were calculated based on the dam's weight at the time of administration (PA (μL)=0.2×dam weight (g) GD 5-10; PA (μL)=0.2105×weight (g) GD 11-19). Intake of food in the alcohol treatment group was measured, and an equivalent amount of food was given to the pair-fed control dams to account for additional nutritional factors. Rats were euthanized by decapitation while under isoflurane anesthesia.
# (§4) Maternal weights and fetal weights were measured on GD 20-21, one day after the last treatment on GD 19-20, following euthanasia.
# (§5) Maternal weight and fetal weight (unit of analysis is a dam or litter) were analyzed using two-way mixed ANOVA with alcohol as the between factor and PA as the within factor. Normality was tested using the Shapiro-Wilk normality test where appropriate. […] The data were considered significant if the p value was <0.05.
# [3] = system: pregnant Sprague-Dawley rats; conditions: rat, in vivo
# Procedure: as §2, §3, §4, §5
# [4] = fetuses from ethanol-fed rats, P<0.05
Acetylcholine-induced uterine artery relaxation (vasodilation) (uterine artery),Acetylcholine-induced uterine artery relaxation (vasodilation) (uterine artery; listed as alcohol),P-Ser1177 eNOS level in uterine artery [1],P-Ser1177 eNOS level in uterine artery ([1]; listed as Alcohol),P-Ser1177 eNOS level in uterine artery ([1]; listed as Ethanol),Average litter size ([2]; alcohol group),"Mean fetal weights ([2]; alcohol group vs control, p<0.0001)","Crown-rump length lower than pair-fed control [2, 4] [%]","Mean fetal weight lower than pair-fed control [2, 4] [%]",Compound,Total eNOS levels in uterine artery [1],Total eNOS levels in uterine artery ([1]; listed as alcohol),"Maternal body weights ([2]; GD 20-21, control, alcohol, control PA, alcohol PA groups)",Maternal body weights [3]
significantly impaired,significantly decreased,decreases,significantly reduced,significantly reduced,10.83±1.33,significantly lower,~8,~9,CCO [ethanol],Neither ethanol treatment nor PA affected total eNOS levels,Neither alcohol nor PA had any effect on total eNOS,did not differ among the treatment groups,–
–,–,–,–,–,–,–,–,–,L-α-phosphatidic acid [PA],–,–,–,did not differ among the treatment groups
